Source: patent publication US20220305017A1, “COMPOSITIONS AND METHODS FOR THE TREATMENT OF ESTROGEN-DEPENDENT DISORDERS” (ObsEva S.A., priority 2019, published 2022)

Test system: human female patients diagnosed as having adenomyosis
Assay: human clinical trial in adenomyosis (single-patient longitudinal case study and multi-patient analysis, n = 6)
Type: in vivo
Details: single patient
From the text: This examples describes the results of a human clinical trial conducted to evaluate the ability of a GnRH antagonist, 3-[2-fluoro-5-(2,3-difluoro-6-methoxybenzyloxy)4-methoxyphenyl]-2,4-dioxo-1,2,3,4-tetrahydrothieno [3,4d]pyrimidine-5-carboxylic acid (represented by formula (VI)), or a pharmaceutically acceptable salt thereof, to treat adenomyosis, an estrogen-dependent disease, in human patients diagnosed as having this condition.
One aim of this study was to investigate the ability of the GnRH antagonist to maintain its therapeutic effects despite being administered to patients in a progressively lower dosage throughout the trial. To this end, the patients treated in this study was first administered the GnRH antagonist of formula (VI) in an amount of 200 mg/day during an initial 12-week period. The GnRH antagonist was then administered to the patients in a reduced amount of 100 mg/day during a subsequent 12-week period. The patients' responsiveness to the GnRH antagonist was monitored throughout the study.
In addition to assessing the effectiveness of the GnRH antagonist when administered at lower doses, another aim of this study was to evaluate the ability of the GnRH antagonist to sustain its therapeutic effects even after treatment was ceased altogether. Accordingly, after being periodically administered the GnRH antagonist of formula (VI) over the course of 24 weeks, first in an amount of 200 mg/day and then in an amount of 100 mg/day, treatment with the GnRH antagonist was halted entirely. The patients were then monitored during a post-treatment follow-up period to analyze the extent to which the therapeutic effects of the compound were sustained.
To test the effects of compound (VI), a total of n=6 human female patients diagnosed as having adenomyosis were administered compound (VI) in accordance with the dosing schedule described above. One of these patients in particular was closely monitored beginning well before their treatment with compound (VI) was initiated. The specific results of this patient's therapy are described in the section entitled “Single-Patient Longitudinal Case Study,” below. The cumulative set of results for all 6 patients is reported in the section entitled “Multi-Patient Analysis,” below.
As part of the clinical trial, a case study was conducted in which a single patient of reproductive age having clinically diagnosed adenomyosis was monitored during the course of treatment with compound (VI). The patient was nulliparous. Two years before the study began, the patient presented with heavy menstrual bleeding, pelvic pain, and dysmenorrhea. […] Their gynecologist prescribed ulipristal acetate (UPA), a selective progesterone receptor modulator (SPRM), to be administered in an amount of 5 mg/day over the course of a treatment period lasting three months.
The patient was then recommended for treatment with the GnRH antagonist represented by formula (VI) herein. Accordingly, the patient was orally administered compound (VI) in an amount of 200 mg/day for three months. Following this initial three-month period, the patient was orally administered compound (VI) in a reduced amount of 100 mg/day for a subsequent three-period. During both treatment periods, compound (VI) was administered to the patient in the form of a choline salt.
The patient was recommended for once-daily treatment with the GnRH antagonist of formula (VI). Accordingly, the patient was administered the GnRH antagonist of formula (VI) in an amount of 200 mg/day during a first treatment period, which lasted three months. At the conclusion of the first treatment period, the patient began a second treatment period in which they were administered compound (VI) in a reduced amount of 100 mg/day for three months. During both treatment periods, compound (VI) was administered to the patient in the form of a choline salt. […]

In the case of `CC(=O)O[C@]1(C(C)=O)CC[C@H]2[C@@H]3CCC4=CC(=O)CCC4=C3[C@@H](c3ccc(N(C)C)cc3)C[C@@]21C` [UPA, ulipristal acetate, reference compound], the bleeding during treatment (5 mg/day for three months) is reported as “breakthrough bleeding and spotting”, the “symptoms of pelvic pain and dysmenorrhea” value (5 mg/day for three months, before compound (VI)) is reported as “worsened” and the “adenomyotic lesions by MRI” value (end of 5 mg/day three-month course, FIG. 4B) is reported as “significantly increased quantity of adenomyotic lesions”.
